Data published in patent US10493100B2, “Pharmaceutical composition for preventing or treating brain cancer including crystal polymorph of tetraarsenic hexoxide, and method for preparing same” (CHEMAS CO., LTD., priority 2016, dated 2019).

What was measured:
[1] = test system: human brain glioblastoma cell line U-118MG; test: Cell proliferation assay (MTT assay), U-118MG; assay type: cell-based
Protocol: (§1) Fetal bovine serum (FBS) and cell culture medium were prepared (Hyclone), and dimethyl sulfoxide (DMSO) and 3-(4,5-dimetyl-thiazol-2yl)-2,5-diphenyltetrazolium bromide (MTT, Amresco LLC, USC) were prepared.
(§2) As human cancer cell lines, human brain glioblastoma cell lines U-87MG and U-118MG were obtained from the Shanghai Cell Bank of Chinese Academy of Sciences. The cells were incubated in Eagle's Minimum Essential Medium (EMEM), supplemented with 10% FBS, 100 U/ml penicillin, and 100 μg/ml streptomycin according to the culture condition, in a humidified incubator with 5% CO2 and 95% air. The medium was exchanged every three days.
(§3) The effects of Example 1 and Comparative Examples 1 to 3 on cell proliferation were assessed using MTT assay. MTT assay is based on the ability of viable cells against MTT to produce insoluble dark blue formazan products. After the cells were suspended in the medium by trypsin treatment and collected, the cells were dispensed at a density of 4×10^3 cells/well in a 96-well culture dish (Costar, Cambridge, Mass., USA). After 24 hours, Example 1 and Comparative Examples 1 to 3 as treatment samples were added, at 0, 0.625, 1.25, 2.5, 5, 10, 20, 40, or 80 μM, to the cells in the media containing 10% FBS, and then the cells were incubated. […] All the crystals were completely dissolved by standing at room temperature for 15 minutes, and the absorbance was measured using a micro-plate reader at a wavelength of 570 nm (A570 nm).
(§4) The absorbance value of the control group treated without the sample was calculated as 100, and the absorbance value of the treatment group treated with the sample, compared with that of the control group, was calibrated, and the percentage of inhibition of cell proliferation was calculated according to the following equation. Percentage (%) of inhibition of cell proliferation=((mean absorbance of control group cells−mean absorbance of treatment group cells)/mean absorbance of control group cells)×100
(§5) All data were expressed as mean±standard error of the mean (mean±SEM). […]

[2] = Weight measurement in animal models transplanted with human brain glioblastoma cell line; assay type: in vivo, Balb/C female nude mice
Protocol: (§6) The human brain glioblastoma cell line U-87MG (purchased from ATCC) was incubated in Eagle's Minimum Essential Medium (EMEM) supplemented with 10% FBS, 100 U/ml penicillin, and 100 μg/ml streptomycin in an incubator under conditions of 37° C., 5% CO2, and 95% air. The medium was exchanged every three days.
(§7) The U-87MG cells labeled with luciferase were inoculated into the primary site of the brain in […] Balb/C female nude mice weighing 16-19 g, and the amount of cells inoculated was 5×10^5/5 uL. The animals were subjected to imaging examinations on the 6th day after the inoculation, when the surgical sites of the animals were restored and the tumor cells were slightly grown. The animals were randomly divided into two groups, four animals for each group, according to the imaging results. A test group was administered with a solution containing Example 1 dissolved in physiological saline (0.9% NaCl), and a control group was administered with only physiological saline, which is a solvent used for the test group. The animals of the two groups were administered once daily with physiological saline or 2.25 mg/kg Example 1. The dose was 10 uL/g on the basis of the weight of the animals. During the administration, the weight and health conditions of the animals were continuously monitored, and at the same time, the animals were subjected to image examination.

[3] = test system: glioblastoma in the left parieto-temporal lobe; test: Clinical Test-2: patient; assay type: in vivo, human; settings: after surgery, radiotherapy and Tremodal
Protocol: (§8) The following clinical tests were conducted using the composition of Example 1.
This patient with symptoms of headache, vomiting, diplopia, and visual field defect was diagnosed with glioblastoma in the left parieto-temporal lobe. On the 3rd day after the diagnosis, tumor removal was conducted by surgery, and the tumor was confirmed as glioblastoma of the WHO grade IV/IV as a result of pathologic diagnosis. Radiotherapy with Tremodal treatment (61.2 Gy/33fx) was performed from the 45th day to the 90th day after the diagnosis. The remaining tumors were still confirmed on MRI images after the radiotherapy and Tremodal treatment. From the 95th day after the diagnosis, 5 mg of Example 1 was administered three times a day for 17 months. […] The pre-treatment MRI images of this patient are shown in FIG. 7, and MRI images after the surgery and radiotherapy are shown in FIG. 8. Respective images after four months, seven months, and ten months of administration of Example 1 are shown in FIGS. 9A, 9B, and 9C, respectively.

gliomatosis cerebri = test: Clinical Test-1: patient; assay type: in vivo, human
Protocol: as §8
From the 10th day after the diagnosis, mobility weakening and trembling symptoms of both arms began to appear and then proceeded rapidly. […] Pre-treatment MRI images of this patient are shown in FIG. 4, and MRI images after two months and three months of radiotherapy together with administration of Example 1 are shown in FIGS. 5 and 6, respectively.

[4] = test system: U-87MG cells labeled with luciferase; test: In vivo efficacy test, tumor imaging signal in animal models transplanted with human brain glioblastoma cell line; parameters: species or system Balb/C female nude mice; settings: 2.25 mg/kg once daily
Protocol: as §6, §7

[5] = test system: human brain glioblastoma cell line U-87MG; test: Cell proliferation assay (MTT assay), U-87MG; assay type: cell-based
Protocol: as §1, §2, §3, §4, §5

[6] = compared with Comparative Example 2 or 3 (4:1 or 1:1 mixtures)
[7] = from the 7th day of administration (FIG. 10A)

Q: For tetraarsenic hexoxide [Example 1], which “percentage of inhibition of brain glioblastoma cell proliferation” value [1, 6] is on record?
A: higher

Q: What about the “percentage of inhibition of brain glioblastoma cell proliferation” value ([1]; incubation 48 hours (FIG. 3A), compared with Comparative Example 1) of the same substance?
A: higher

Q: And the “percentage of inhibition of brain glioblastoma cell proliferation” value ([1]; incubation 72 hours (FIG. 3B), compared with Comparative Example 1)?
A: higher

Q: And the “Body change 9 days after the first administration” value ([2]; 2.25 mg/kg once daily)?
A: -0.8 g

Q: And the “Weight 9 days after the first administration” value ([2]; 2.25 mg/kg once daily, mean ± SEM, 4 animals)?
A: 16.1 ± 0.5 g

Q: What about the “weight after 9 days of drug administration (in words)” value ([2]; 2.25 mg/kg once daily, control group largely reduced) of the same substance?
A: almost unchanged weight

Q: What about the Weight before administration ([2]; test group, mean ± SEM, 4 animals, baseline) of the same substance?
A: 16.9 ± 0.2 g

Q: And the “sizes of remaining tumors (MRI)” value ([3]; 5 mg three times a day for 17 months)?
A: confirmed to decrease

Q: And the subjective symptoms ([3]; 5 mg three times a day, from 2 months of administration)?
A: no subjective symptom

Q: And the “mobility weakening and trembling symptoms” value (gliomatosis cerebri; 15 mg per day from the 17th day after the diagnosis, before radiotherapy)?
A: began to improve

Q: And the symptoms (gliomatosis cerebri; 15 mg per day together with radiotherapy from the 27th to the 75th day after the diagnosis)?
A: the symptoms disappeared completely

Q: What about the “tumor size on MRI images” value (gliomatosis cerebri; after three months of radiotherapy together with administration (FIG. 6)) of the same substance?
A: tumors almost disappeared

Q: And the “tumor size on MRI images” value (gliomatosis cerebri; after two months of radiotherapy together with administration (FIG. 5))?
A: tumor sizes were reduced

Q: What about the “luminescence signal intensities due to the proliferation and metastasis of tumors” value ([4]; 7th and 9th days of administration (FIG. 10B), control group vs test group) of the same substance?
A: in the control group were much stronger than those in the test group

Q: What about the tumor signal intensities [4, 7] of the same substance?
A: significantly light

Q: What about the “tumor signals in the spine (tumor metastasis into the spine)” value [4, 7] of the same substance?
A: hardly observed in the spine

Q: What about the “percentage of inhibition of brain glioblastoma cell proliferation” value [5, 6] of the same substance?
A: higher

Q: And the “percentage of inhibition of brain glioblastoma cell proliferation” value ([5]; incubation 48 hours (FIG. 2A), compared with Comparative Example 1)?
A: higher

Q: What about the “percentage of inhibition of brain glioblastoma cell proliferation” value ([5]; incubation 72 hours (FIG. 2B), compared with Comparative Example 1) of the same substance?
A: higher
